Results taken from article PMC6682008 (ACS Omega, 2019).

Target: hSPR (human sepiapterin reductase) (Homo sapiens, UniProt P35270)
Assay: colorimetric sepiapterin reduction, absorbance decrease at […] nm
Type: biochemical

Sequence of hSPR (human sepiapterin reductase) (P35270 whole entry): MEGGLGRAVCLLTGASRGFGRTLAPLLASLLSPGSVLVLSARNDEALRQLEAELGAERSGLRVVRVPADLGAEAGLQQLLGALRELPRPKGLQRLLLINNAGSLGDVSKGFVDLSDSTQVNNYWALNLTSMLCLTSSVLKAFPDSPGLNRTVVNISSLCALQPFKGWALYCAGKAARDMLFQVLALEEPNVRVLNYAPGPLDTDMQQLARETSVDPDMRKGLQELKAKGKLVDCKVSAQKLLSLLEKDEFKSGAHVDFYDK

IC50 [µM]	SMILES
8.26	C[C@H](Cc1ccc(O)c(O)c1)[C@@H](C)Cc1ccc(O)c(O)c1 [nordihydroguaiaretic acid]
5.89	COc1ccc(/C=C/C(=O)Nc2ccccc2C(=O)O)cc1OC [tranilast, N-3′,4′-dimethoxycinnamoyl-anthranilic acid]
11.6	CC(=O)NCCc1c[nH]c2ccc(O)cc12 [N-acetylserotonin, reference compound]
